Laboratory results from patent publication US10980238B2, “Alkali metal salt for use in treatment of varroa destructor mite infestation of honey bees” (Universität Hohenheim, priority 2015, dated 2021).
Values joined by “and” are separate entries in the source; they are usually repeats but may differ in a detail not shown here. Equal entries are not always repeated.

Columns and labels:
Varroa destructor [1] = assay: Experiment 3 dose response cage test (50 bees, 25 mites): mite survival; assay type: in vivo
Protocol: (§1) LiCl was added to 70% sucrose solution to final concentrations of 16 μM, 80 μM, 400 μM, 2 mM, 10 mM, 50 Mm, and 250 mM, respectively. 2 ml of the respective solution was fed to the bees, if the sucrose/LiCl solution was entirely ingested additional sucrose syrup was offered ad libidum. Uptake of LiCl solution as well as survival rate of bees and mites was monitored 3 times daily (morning, noon, evening). Additionally, the healthiness of bees was scored based on characteristic behavioral features. LiCl was administered until all mites were dead, and the experiment continued with plain sucrose syrup to record the response of bees over the entire 2 weeks of the experiment. For control bees treated with sucrose syrup only, 9 mites died within the course of the experiment with even timely distribution of the events, indicating natural death of mites. 26 bees died in the same period of time. In view of the life span of a worker bee (4 weeks) this relates to the natural death rate that can be expected in a time span of 14 days. However, 12 bees were lost in a single day equaling almost 50% of the total bee loss in this control experiment. […] For that reasons the sudden loss of bees on day 14 is considered to result from a mistake in bee treatment as feeding inappropriate amounts of sucrose syrup. (See FIG. 4, dotted red line)
(§2) Additionally, we set out to test activity of a single dose on mite viability. Sucrose with 25 mM LiCl was fed to a cage of 50 bees infested with 25 mites and monitored as described above. […] As such, a single dose of LiCl can be used to kill mites under the described conditions.
(§3) To explore the upper limit of dosage and limits of tolerability of bees we fed sucrose containing 100 mM of LiCl as only food source over 14 days. […] In view of the latter results the effective window for concentration and administration and regimen of LiCl is sufficiently large to elevate low but effective concentrations (10 mM) more than 10 fold or prolong the time of administration substantially without negative impact on bee health.

bees [2] = assay: Experiment 3 dose response cage test (50 bees, 25 mites): bee survival and health; assay type: in vivo, Apis mellifera
Protocol: as §1, §2, §3

bees [3] = details: 50 bees per cage, mean of 6 cages (LiCl) or 3 cages
Protocol: (§4) In a further experiment LiCl, NaCl and MgCl2 were selected and their acaricidal activity compared. The experiment was performed in cages of 50 bees, to each of which 25 mites were added. Bees in control cages received sucrose only. LiCl, NaCl or MgCl2 were added to 70% sucrose solutions at a final concentration of 25 mM each and fed to the bees for seven days. Survival rate of bees and mites were monitored daily. Dead bees and mites were removed from the cages.
(§5) The numbers represent mean values derived from 6 cages. […] Numbers for NaCl, MgCl2 and control represent mean values derived from 3 separate cages.

bees [4] = details: 25 mM in 70% sucrose; 50 bees
Protocol: (§6) The next set of experiments was carried out in plastic container with 50 bees and 20 mites each. Bees were fed the same amount of unspecific dsRNA that has been used in previous assays in 70% sucrose solution, LiCl at a concentration of 25 mM in 70%, sucrose solution, and 70% sucrose solution only.

Varroa destructor [5] = assay: Experiment 9 artificial swarms: mite fall; assay type: in vivo; details: 25 mM or 50 mM
Protocol: Six artificial swarms were fed with sucrose/LiCl after a starving phase of several hours. LiCl was dissolved in sucrose at final concentrations of 25 mM and 50 mM. Each artificial swarm received 500 ml of the sucrose/LiCl mixture in a feeding balloon. The total volume of sucrose/LiCl solution was consumed by the bees. Mite fall was monitored for 7 days. Afterwards, bees were treated with Perizin® to assess the number of remaining mites.

Varroa destructor [6] = assay: Experiment 2 cage test (50 bees, 20 mites): dead mites; assay type: in vivo; details: 25 mM in 70% sucrose
Protocol: as §6

Varroa mites = assay: Experiment 5 cage comparison of LiCl, NaCl and MgCl2: dead mites; assay type: in vivo, Varroa destructor
Protocol: as §4, §5

honey bee larvae = assay: Experiment 8 larval development in vitro; assay type: in vivo, Apis mellifera
Protocol: In order to assess the effect of LiCl on larval development in vitro, larvae were obtained by caging the queen for 24 h on broodless combs in the colony. After 5 to 6 days when the larvae reached the age of about 48 h they were transferred to petri dishes filled with larval food. The petri dishes were placed in plastic boxed filled with 8% sulfuric acid in order to prevent fungi infection and kept in a chamber at 34° C. and 95% relative humidity. The larvae were fed as needed with a mixture consisting of 53% royal jelly, 4% glucose, 8% fructose, 1% yeast extract and water (control). For samples treated with LiCl, 10 mM, 25 mM or 50 mM LiCl were added to the mixture. Prior to the pupa phase, the larvae were placed on a tissue for defecating which occurred approximately on day 9. Afterwards larvae were placed in well plates until hatching. Larvae mortality was monitored on a daily basis.

Varroa destructor [7] = assay: Experiment 7 mini-hives (2000 to 3000 bees), semi-field conditions; assay type: in vivo; details: remaining mites killed with Perizin and counted
Protocol: In order to investigate if the miticidal effect of LiCl can also be detected under semi-field conditions, so-called “mini-hives” consisting of 2000 to 3000 bees each were treated with LiCl.
LiCl was dissolved in 70% sucrose to final concentrations of 2 mM, 10 mM and 25 mM. Each concentration was replicated 6 times and fed to the bees for 23 days. Dead mites were documented daily. After 23 days of LiCl treatment, remaining mites were killed with Perizin® (commercial product containing the active ingredient coumaphos) and counted (see Table 4 “Remaining mites”).

[8] = 100 mM as only food source over 14 days
[9] = 250 mM in 70% sucrose, 25 mites
[10] = 25 mM in 70% sucrose for seven days
[11] = 25 mM in 70% sucrose for seven days, 25 mites per cage, mean of 6 cages (LiCl) or 3 cages

[Cl-].[Li+] [LiCl, lithium chloride]
mites that survived the treatment (Varroa destructor [1]; 2 mM, 25 mites, 2 weeks): 11 mites | time in which all mites were killed (Varroa destructor [1]; 10 mM in 70% sucrose, 25 mites): ≤ 48 h | additional mites found dead at the end of the experiment (Varroa destructor [1]; 10 mM, 25 mites): 2 mites | dead mites, day 1 (Varroa destructor [1]; 10 mM, 25 mites): 3 mites | dead mites, day 2 (Varroa destructor [1]; 10 mM, 25 mites): 10 mites | dead mites, day 3 (Varroa destructor [1]; 10 mM, 25 mites): 7 mites | dead mites, day 4 (Varroa destructor [1]; 10 mM, 25 mites): 3 mites | time to all mites dead (Varroa destructor [1]; 50 mM in 70% sucrose, 25 mites): 48 h | effect on mites (Varroa destructor [1]; [8]): effectively killed | mites lost between 30 h and 48 h (Varroa destructor [1]; [9]): 21/25 | time to loss of all mites (Varroa destructor [1]; [9]): ≤ 48 h | impact on viability of mites (Varroa destructor [1]; concentrations lower than 2 mM (16 μM, 80 μM, 400 μM), data not shown): only marginally impacted the viability of mites | time to eliminate all mites (Varroa destructor [1]; concentrations of 10 mM and higher): ≤ 4 days | time in which mites were effectively killed (Varroa destructor [1]; single dose of sucrose with 25 mM, 50 bees, 25 mites): ≤ 72 h | tolerance by bees (bees [2]; 2 mM over a period of 2 weeks): without pronounced decrease in viability | bees that survived the treatment (bees [2]; 2 mM, 50 bees, 2 weeks): 42 bees | bees alive at the end of the experiment (bees [2]; 10 mM, 50 bees, 2 weeks): 34 bees | tolerability by the bees (bees [2]; 50 mM, 50 bees): good tolerability | bees lost in the timespan of the entire experiment (bees [2]; 50 mM, 50 bees, 2 weeks): 20 bees | effect on bees (bees [2]; [8]): time delayed continuous loss of bees | average rate of bee loss (bees [2]; 250 mM until all mites dead, then sucrose only, 50 bees): 3 bees per day | bees lost in total (bees [2]; 250 mM until all mites dead, then sucrose only, 50 bees, 2 weeks): 27 bees | impact on bee health (bees [2]; single dose of sucrose with 25 mM, entire experiment): no negative impact on bee health | Number of dead bees, Day 1 (bees [3]; [10]): 0.2 | Number of dead bees, Day 2 (bees [3]; [10]): 0.2 | Number of dead bees, Day 3 (bees [3]; [10]): 0.3 | Number of dead bees, Day 4 (bees [3]; [10]): 0.8 | Number of dead bees, Day 5 (bees [3]; [10]): 0.5 | Number of dead bees, Day 6 (bees [3]; [10]): 1.0 | Number of dead bees, Day 7 (bees [3]; [10]): 0.2 | Number of dead bees, Sum (bees [3]; 25 mM in 70% sucrose, days 1-7): 3 and 3.2 | effect on bees within the first 4 days of treatment (bees [4]): not affected | acaricidal efficacies for all six swarms (Varroa destructor [5]): above 80% | mites dead after 24 h (Varroa destructor [6]): 4 mites | mites dead after 48 h (Varroa destructor [6]): 15 mites | mites dead after 72 h (Varroa destructor [6]): 20 mites | acaricidal effect (Varroa mites; [10]): strong acaricidal effect | Number of dead mites, Day 1 (Varroa mites; [11]): 0.3 | Number of dead mites, Day 2 (Varroa mites; [11]): 2.2 | Number of dead mites, Day 3 (Varroa mites; [11]): 19.2 | Number of dead mites, Day 4 (Varroa mites; [11]): 3.0 | Number of dead mites, Day 5 (Varroa mites; [11]): 0.3 | Number of dead mites, Day 6 (Varroa mites; [11]): 0.0 | Number of dead mites, Day 7 (Varroa mites; [11]): 0.0 | Number of dead mites, Sum (Varroa mites; 25 mM in 70% sucrose, days 1-7, 25 mites per cage, mean of 6 cages (LiCl) or 3 cages): 25.0 | Survival rate (%) of larvae or pupae (honey bee larvae; 10 mM added to larval food): 0% | time in which all larvae were lost (honey bee larvae; 10 mM, 25 mM or 50 mM added to larval food): ≤ 72 h | Survival rate (%) of larvae or pupae (honey bee larvae; 25 mM added to larval food): 0% | Survival rate (%) of larvae or pupae (honey bee larvae; 50 mM added to larval food): 0% | Remaining mites (Varroa destructor [7]; 2 mM in 70% sucrose for 23 days): 234 | Remaining mites (Varroa destructor [7]; 10 mM in 70% sucrose for 23 days): 54 | Remaining mites (Varroa destructor [7]; 25 mM in 70% sucrose for 23 days): 24
